{"source": "paper PMC4109617", "about": "“The functionalized amino acid (S)-Lacosamide subverts CRMP2-mediated tubulin polymerization to prevent constitutive and activity-dependent increase in neurite outgrowth” (Frontiers in Cellular Neuroscience, 2014)", "biological_target": "T1, CRMP2 (collapsin response mediator protein 2) (Rattus norvegicus, UniProt P47942)", "T1 construct": "gene Dpysl2; purified recombinant wild-type CRMP2 (GST construct), NT647-labeled", "assay": "microscale thermophoresis (MST), Hill fit", "format": "binding", "data": [{"smiles": "COC[C@H](NC(C)=O)C(=O)NCc1ccccc1", "note": "[(S)-LCM, (S)-lacosamide]", "values": [{"measurement": "Kd", "result": "1500 ± 10", "unit": "nM"}]}]}
